Measurements published in patent publication US10590109B2, “Heterocyclic compounds used as FGFR inhibitors” (Nanjing InnoCare Pharma Tech Co., Ltd., priority 2016, dated 2020).
Like-named read-outs stand apart in the source and are kept apart here.

Experiments:
[1] = molecular target: human recombinant FGFR1 catalytic structural domain protein (Homo sapiens (Human), UniProt P11362); test: FGFR1 activity inhibition test (HTRF kinase assay); format: biochemical; settings: 40 μM ATP
Method: FGFR1 Activity Inhibition Test
The influence of the compound according to the present invention on the activity of fibroblast growth factor receptor 1 (FGFR1) was evaluated by an in vitro kinase assay experiment.
(§1) The experimental method is summarized as follows:
The in vitro activity of FGFR1 was determined by assaying the phosphorylation level of the substrate in the kinase reaction, by means of an HTRF kinase assay kit.
(§2) If the IC50 value of the compound was very low, the initial concentration of the compound could be reduced.
(§3) After 60 min, the enzyme reaction was terminated by EDTA in the assay solution, and the phosphorylated products were identified by both the Eu^3+ labeled cage-shaped antibody (donor) and the streptavidin labeled XL665 antibody (receptor) at the same time. […] The inhibition percentage of the compound against FGFR1 activity could be calculated with the following formula: Inhibition percentage=100−100*(signalcompound−signalnegative control)/(signalpositive control−signalnegative control)
The IC50 value of the compound was calculated by the following formula, from 10 concentration points, with XLfit (ID Business Solutions Ltd., UK): Y=Bottom+(Top−Bottom)/(1+10^((Log IC50−X)*slope factor))
(§4) Where, Y is the inhibition percentage, Bottom is the bottom plateau of the curve (the bottom plateau of the S-type curve), Top is the top plateau of the curve (the top plateau of the S-type curve), and X is the log value of the compound concentration to be measured.

[2] = molecular target: human recombinant FGFR4 catalytic structural domain protein (Homo sapiens (Human), UniProt P22455); test: FGFR4 activity inhibition test (HTRF kinase assay); format: biochemical; settings: 90 μM ATP
Chain of human recombinant FGFR4 catalytic structural domain protein (P22455 460-802): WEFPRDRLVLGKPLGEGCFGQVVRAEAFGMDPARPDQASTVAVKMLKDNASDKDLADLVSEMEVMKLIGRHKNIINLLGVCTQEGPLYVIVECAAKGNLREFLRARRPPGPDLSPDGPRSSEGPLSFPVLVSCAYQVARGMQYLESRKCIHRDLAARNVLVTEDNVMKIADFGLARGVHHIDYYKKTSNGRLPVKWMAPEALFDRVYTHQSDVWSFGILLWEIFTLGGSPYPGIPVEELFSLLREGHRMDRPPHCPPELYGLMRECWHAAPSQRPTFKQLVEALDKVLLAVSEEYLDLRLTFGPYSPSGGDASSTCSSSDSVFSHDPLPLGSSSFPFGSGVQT
Method: FGFR4 Activity Inhibition Test
The influence of the compound according to the present invention on the activity of fibroblast growth factor receptor 4 (FGFR4) was evaluated by an in vitro kinase assay experiment.
as §1
The in vitro activity of FGFR4 was determined by assaying the phosphorylation level of the substrate in the kinase reaction, by means of an HTRF kinase assay kit.
as §2
as §3, with “FGFR4” for “FGFR1”
The IC50 value of the compound was calculated by the following formula, from 10 concentration points, with XLfit (ID Business Solutions Ltd., UK): Y=Bottom+(Top−Bottom)/(1+10^((Log IC50−X)*slope factor)) Where, Y is the inhibition percentage, Bottom is the bottom plateau of the curve (the bottom plateau of the S-type curve), Top is the top plateau of the curve (the top plateau of the S-type curve), and X is the log value of the compound concentration to be measured.

Hep3B cells = test: Hep3B cell proliferation inhibition test (CellTiter-Glo); format: cell-based; settings: Homo sapiens, 72 h, CTG
Method: Hep3B Cell Proliferation Inhibition Test
The influence of the compound according to the present invention on Hep3B cell proliferation was evaluated by a luminescence cell viability test.
as §1
A CellTilter-Glo (CTG) assay kit was used to detect an indicator ATP of active cellular metabolism by means of a unique stable luciferase, and the luminous signal produced in the test was in direct proportion to the count of active cells in the medium, thereby to detect the cell proliferation of Hep3B.
A CellTilter-Glo agent (Promega, G7572) was comprised of a CellTilter-Glo lyophilized powder and a CellTilter-Glo buffer, and the lyophilized powder was dissolved into the buffer in use.
Hep3B cells (ATCC, HB-8064) (cell source: Shanghai Academy of Life Sciences, Chinese Academy of Sciences) were cultured in a DMEM complete medium (Thermofisher, 11995073) containing a 10% FBS (GBICO, 10099-141) and 100 units/ml mycillin mixed solution (Thermofisher, 15140122). When the cells coverage reached 80-90% in the culture vessel, after the cells were digested and blown about with 0.25% pancreatin (containing EDTA) (Thermofisher, 25200056), they were planted in a white 384 well plate (Thermofisher, 164610), with 1000 cells in each well (27 μl of a DMEM complete medium), and then the 384 well plate was placed into an incubator at 37° C. and 5% CO2 and cultured overnight (18-20 h). The compound was dissolved and diluted in 100% DMSO to 100 μM, then 4-fold-series diluted with DMSO to a minimum concentration of 0.0061 μM, and each concentration point was 50-fold diluted with the FBS-free DMEM medium. If the IC50 value of the compound was very low, the initial concentration of the compound could be reduced. […] This 384 well plate was placed into an incubator at 37° C. and 5% CO2 for further culture, taken out after 72 h, and stood at room temperature for 30 min. The CTG agent was also taken out and balanced to room temperature. 15 μl of the CTG agent was added into each well, and placed onto a shaker to be gently shaken for 3 min to ensure sufficient cell lysis. After 10 min of standing to allow the luminescence signal to be stable, the luminescence signal was read with EnVision (Perkin Elmer).
The inhibition percentage of the compound against Hep3B cell proliferation could be calculated with the following formula: Inhibition percentage=100−100*(signalcompound−signalnegative control)/(signalpositive control−signalnegative control)
The IC50 value of the compound was calculated by the following formula, from 8 concentration points, with XLfit (ID Business Solutions Ltd., UK): Y=Bottom+(Top−Bottom)/(1+10^((Log IC50−X)*slope factor))
as §4

[3] = tested on: FGF19/FGFR4-overexpressed Hep3B hepatocellular carcinoma (HCC) xenograft tumors; format: in vivo; settings: for TGI value / mean tumor size: day 18
Method: Data points represent group mean, error bars represent standard error of the mean (SEM). *P<0.05, **P<0.01, ***P<0.001, ****P<0.0001, NS P>0.05 vs vehicle group.
The relative change of body weights (% RCBW) was calculated based on the following formula: RCBW (%)=(BWi−BW0)/BW0×100%, BWi was the bodyweight on the day of dosing and BW0 was the bodyweight on the first day of administration. Data points represent percent group mean change in BW. Error bars represent standard error of the mean (SEM).
Dosing was initiated on day 0 and effects on tumor growth were evaluated by measuring percent tumor growth inhibition (TGI) at the end of the study. Tolerability was assessed by body weight loss, lethality, and clinical signs of adverse treatment-related side effects. Tumor volumes and body weights were measured twice per week in the administration period. The percentage of TGI was determined on day 18 of the study. The difference between the mean values of tumor volume in treatment and vehicle groups was analyzed for significance using one-way ANOVA (followed by Dennett's test) at each time point and a P<0.05 was considered to be statistically significant.

[4] = 100 mg/kg BID for 18 days, oral

Chain of human recombinant FGFR1 catalytic structural domain protein (P11362 other isoform, or with tags, fused parts or gaps): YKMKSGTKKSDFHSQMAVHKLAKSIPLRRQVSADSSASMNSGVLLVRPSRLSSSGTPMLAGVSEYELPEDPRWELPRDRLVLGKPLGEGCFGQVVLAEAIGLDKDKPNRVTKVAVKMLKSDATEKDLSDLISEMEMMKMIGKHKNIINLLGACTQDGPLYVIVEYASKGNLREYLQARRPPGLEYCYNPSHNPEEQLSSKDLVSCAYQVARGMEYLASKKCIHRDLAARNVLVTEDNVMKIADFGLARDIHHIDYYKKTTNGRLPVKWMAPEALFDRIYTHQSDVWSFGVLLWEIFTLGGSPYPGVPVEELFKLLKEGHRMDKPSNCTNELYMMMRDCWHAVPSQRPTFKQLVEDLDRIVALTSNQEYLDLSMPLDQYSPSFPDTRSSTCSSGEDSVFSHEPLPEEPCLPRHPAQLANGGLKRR

| SMILES | IC50 [1] | IC50 [2] | IC50 (Hep3B cells) | other results |
| --- | --- | --- | --- | --- |
| COCCNc1cc(NC(=O)N(C)c2cccc(C=O)n2)ncc1C#N [Compound 1, 3-(5-cyano-4-((2-methoxyethyl)amino)pyrid-2-yl)-1-(6-formylpyrid-2-yl)-1-methyl urea] | > 1000 nM | – | – | – |
| CN(C(=O)Nc1cc(Cl)ncn1)c1cccc(C=O)n1 [Compound 2, 3-(6-chloropyrimidin-4-yl)-1-(6-formylpyrid-2-yl)-1-methylurea] | > 1000 nM | 100 to 1000 nM | – | – |
| CN(C(=O)Nc1ccc(C#N)cn1)c1cccc(C=O)n1 [Compound 3, 3-(5-cyanopyrid-2-yl)-1-(6-formylpyrid-2-yl)-1-methylurea] | > 1000 nM | 10 to 100 nM | – | – |
| CC(C)Nc1cc(NC(=O)N(C)c2cccc(C=O)n2)ncc1C#N [Compound 5, 3-(5-cyano-4-(isopropylamino)pyrid-2-yl)-1-(6-formylpyrid-2-yl)-1-methylurea] | > 1000 nM | < 10 nM | – | – |
| CC(C)Oc1cc(NC(=O)N(C)c2cccc(C=O)n2)ncc1C#N [Compound 6, 3-(5-cyano-4-isopropoxypyrid-2-yl)-1-(6-formylpyrid-2-yl)-1-methylurea] | > 1000 nM | < 10 nM | – | – |
| COCCOc1cc(NC(=O)N(C)c2cccc(C=O)n2)ncc1C#N [Compound 7, 3-(5-cyano-4-(2-methoxyethoxy)pyrid-2-yl)-1-(6-formylpyrid-2-yl)-1-methylurea] | > 1000 nM | < 10 nM | – | – |
| COCCNc1cc(NC(=O)N(C)c2nccc(C=O)n2)ncc1C#N [Compound 8, 3-(5-cyano-4-((2-methoxyethyl)amino)pyrid-2-yl)-1-(4-formylpyrimidin-2-yl)-1-methylurea] | > 1000 nM | 100 to 1000 nM | – | – |
| COCCNc1cc(NC(=O)N(C)c2ccc(CN3CCOCC3=O)c(C=O)n2)ncc1C#N [Compound 9, 3-(5-cyano-4-((2-methoxyethyl)amino)pyrid-2-yl)-1-(6-formyl-5-((3-carbonylmorpholino)methyl)pyrid-2-yl)-1-methylurea] | – | – | < 50 nM | – |
| CC(C)Nc1cc(NC(=O)N(C)c2ccc(CN3CCOCC3=O)c(C=O)n2)ncc1C#N [Compound 10, 3-(5-cyano-4-(isopropylamino)pyrid-2-yl)-1-(6-formyl-5-((3-carbonylmorpholino)methyl)pyrid-2-yl)-1-methylurea] | – | – | 50 to 100 nM | – |
| COCCOc1cc(NC(=O)N(C)c2ccc(CN3CCOCC3=O)c(C=O)n2)ncc1C#N [Compound 12] | – | – | < 50 nM | – |
| CC(C)Nc1cc(NC(=O)N(C)c2ccc(CN3CCN(C)CC3=O)c(C=O)n2)ncc1C#N [Compound 16, 3-(5-cyano-4-(isopropylamino)pyrid-2-yl)-1-(6-formyl-5-((4-methyl-2-carbonylpiperazin-1-yl)methyl)pyrid-2-yl)-1-methylurea] | – | – | < 50 nM | – |
| CN1CCN(Cc2ccc(N(C)C(=O)Nc3cc(Cl)c(C#N)cn3)nc2C=O)C(=O)C1 [Compound 17, 3-(4-chloro-5-cyanopyrid-2-yl)-1-(6-formyl-5-((4-methyl-2-carbonylpiperazin-1-yl)methyl)pyrid-2-yl)-1-methyl urea] | – | 100 to 1000 nM | – | – |
| COC[C@@H](C)Oc1cc(NC(=O)N(C)c2ccc(CN3CCN(C)CC3=O)c(C=O)n2)ncc1C#N [Compound 18, (R)-3-(5-cyano-4-((1-methoxyprop-2-yl)oxo)pyrid-2-yl)-1-(6-formyl-5-((4-methyl-2-carbonylpiperazin-1-yl)methyl)pyrid-2-yl)-1-methylurea] | – | – | < 50 nM | TGI value ([3]; 10 mg/kg BID for 18 days, oral): 96.4%; mean tumor size ([3]; 10 mg/kg BID for 18 days, oral): 230 mm^3; TGI value ([3]; 30 mg/kg BID for 18 days, oral): 108.3%; mean tumor size ([3]; 30 mg/kg BID for 18 days, oral): 16 mm^3; TGI value ([3]; 60 mg/kg QD for 18 days, oral): 104.4%; mean tumor size ([3]; 60 mg/kg QD for 18 days, oral): 86 mm^3; TGI value [3, 4]: 109.2%; mean tumor size [3, 4]: 0 mm^3; tolerability by tumor-bearing animals ([3]; all dose levels): well-tolerated; body weight loss during the treatment ([3]; all groups): didn't exhibit significant body weight loss |
| CC(C)Oc1cc(NC(=O)N(C)c2ccc(CN3CCN(C)CC3=O)c(C=O)n2)ncc1C#N [Compound 19, 3-(5-cyano-4-isopropoxypyrid-2-yl)-1-(6-formyl-5-((4-methyl-2-carbonylpiperazin-1-yl)methyl)pyrid-2-yl)-1-methylurea] | – | – | 50 to 100 nM | – |
| CNC(=O)c1cc(Oc2ccc(NC(=O)Nc3ccc(Cl)c(C(F)(F)F)c3)cc2)ccn1 [sorafenib, reference compound] | – | – | – | antitumor activity (in words) ([3]; 40 mg/kg QD, oral): some antitumor activity |
